Measurements reported in patent publication US6465476B1, “Immuno-modulator exhibiting antimicrobial and anti-mycrobacterial activities, method for producing the same and pharmaceutical preparation” (priority 1997, dated 2002).
Like-named read-outs stand apart in the source and are kept apart here.

Tests used:
[1] = system: agent of leprosy (mycobacteria of leprosy)
[2] = system: human mononucleator cells (T-lymphocytes); test: Proliferation of T-lymphocytes in cell culture in vitro (3H-thymidine); assay type: cell-based
Method: The influence of the test compound on the proliferation of T-lymphocytes was studied on a model in vitro. To this end human mononucleator cells were preliminarily incubated during three hours in the presence of different concentrations of each test substance. Each test substance was studied over a wide range of its concentrations, that is from […]. As a negative control there was added a physiological 0.9 percent solution of NaCl. The results of the influence of novel compoubds on the intensity of proliferation of human lymphocytes in the cell culture in vitro are represented in Table 3.

pulmonary tuberculosis = test: Clinical study on patients with pulmonary tuberculosis; assay type: in vivo, human; details: for B-lymphocytes / T-helpers / T-lymphocytes / T-suppressors / Th/Ts: pulmonary tuberculosis patients
Excerpt: The preparation of the present invention was also studied clinically on tuberculous patients. The age of the patients was under 30 years (6 persons) and under 35 years (2 persons).
The clincal forms of pulmonary tuberculosis in the patients tested were as follows:
infiltrative tuberculosis without cavities of decay and bacterioexcretion—2 persons;
infiltrative tuberculosis with decay and bacterioexcretion—4 persons;
disseminated pulmonary tuberculosis—2 people.
The length of preparation intake was 1 to 2 months. The dose was equal to 0.6 g a day.
The control group consisting of 5 persons with infiltrative pulmonary tuberculosis received conventional treatment including isoniazide. The tolerance for the preparation claimed was good. […] There was no change in functional indices of parenchymatous organs (liver, kidneys, pancreas). In 3 persons hospitalized with symptoms of intoxication the improvement of general physical and mental state was noted including normatization of body temperature, abatement of cough, decrease in amount of sputum excretion, improvement of appetite.

[3] = Example 2, patient D., bronchiectatic disease; assay type: in vivo, human; details: daily dose 400 mg
Method: The patient was admitted to a clinic with a diagnosis “bronchiectatic disease”. Concomitant diseases were chronic tonsillitis, diffuse enlargement of thyroid approximately of the first or the second degree.
According to the protocol of clinical tests the patient was ordered the intake of isophonum for the periode of 30 days in a daily dose of 400 mg. On the 14th or 15th day of intake of the preparation the morning sputum discharge considerably diminished in quantity and changed in character from pussy to mucous, the cough ceased and the patient's general state of health and mood improved.

leprosy mycobacteria = test: Example 3, patient I., lepromatose-typed leprosy, combination treatment; assay type: in vivo, human
Method: They had been ill for 8 years. BIN=66.8-10.8-5.5 where BIN means bacteriological index. […] HI=5,4 where HI means histological index. The patient was ordered the following treatment: 200 mg of isophonum internally twice a day, 200 mg of diuciphonum i.m. and 100 mg dimocifon internally twice a day.
After 8 months of treatment the agent of leprosy vanished in the scrape of nasal mucosa, BIN was 8.3-14.2-4.2, the immunologic parameters normalized. Atfer a year of treatment many of the infiltrates resolved and the other sharply diminished in size and became soft and elastic with their colour changed from rust-brown to cyanotic. BIN became 5.7-4.8-5.3.
There came lymphocytes in moderate numbers. […] The patient continues to undergo treatment.

Storage stability = assay type: physicochemical
Excerpt: More precisely, isophonum is produced by boiling equimolecular amounts of isonicotinic acid hydrazide and 6-methyluracyl-5-sulfochloride in anhydrous acetonitrile. The samples of isophonum maintain their properties during the period of time of 3 years.

[4] = system: tuberculosis mycobacteria H37Rv (USSR H37Rv); assay type: in vivo, tuberculosis mycobacteria; mice of the CBA line; details: for Damage index / Life duration / Weight of the lung: USSR H37Rv
white unbred mice = test: Toxicity on white unbred mice by Litchfild-Wilkokson's procedure; assay type: in vivo; details: white unbred mice 18 to 20 g, sharp experiment
Solubility = assay type: physicochemical
Method: It is soluble in dimethylformamide, dimethylsulfoxide, deluted acids and alkalies; f. p.=255-256° C. The structure of matter is confirmed by the data of PMR-spectroskopy.

[5] = system: antibody-forming cells (AFC) in the spleen; test: Humoral immunity, localized-in-gel hemolysis, AFC accumulation in spleen of immunized mice; assay type: in vivo, hybrid mice F1 (CBA/C57BL6)
Method: The influence on humoral immunity was studied using the method of localized-in-gel hemolysis. […] On the 5th day the number of antibody-forming cells (AFC) in the spleen of the mice was calculated and the immune response stimulation index was determined as the ratio of AFC number in the test group to the AFC number in the control group. The respective data are represented in Table 2.

[6] = leprosy patients, after one month, 0.6 g daily
[7] = leprosy patients, after three months, 0.6 g daily
[8] = leprosy patients, before treatment
[9] = after three months, 0.6 g a day
[10] = tuberculous patients, 0.6 g a day, 1 to 2 months
[11] = after a year, combination with diuciphonum and dimocifon

Cc1[nH]c(=O)[nH]c(=O)c1S(=O)(=O)NNC(=O)c1ccncc1.O [Isophonum, N-(6-methyl-2,4-dioxo-1,2,3,4-tetrahydro-5-pyrimidinsulfon)-N′-isonicotinoylhydrazide hydrate]
shortening of the length of stationary treatment of the leprous patients ([1]; human, in vivo): two-fold
tolerability, side effects ([1]; human, in vivo): well tolerable, has no side effects
time after which the agent of leprosy disappeared in scrapes of nasal mucosa ([1]; leprosy patients, 0.6 g daily): 3 months
B-lymphocytes [1, 6]: 10.0 ± 0.2
T-helpers [1, 6]: 28.2 ± 0.3
T-lymphocytes [1, 6]: 43.4 ± 0.7
T-suppressors [1, 6]: 20.0 ± 0.4
Th/Ts (immunoregulatory index) [1, 6]: 1.4
B-lymphocytes [1, 7]: 11.4 ± 0.4
T-helpers [1, 7]: 48.4 ± 1.2
T-lymphocytes [1, 7]: 60.2 ± 0.9
T-suppressors [1, 7]: 21.2 ± 0.4
Th/Ts (immunoregulatory index) [1, 7]: 2.3 ± 0.1
B-lymphocytes [1, 8]: 8.4 ± 0.2
T-helpers [1, 8]: 20.2 ± 0.2
T-lymphocytes [1, 8]: 28.6 ± 0.1
T-suppressors [1, 8]: 20.4 ± 0.3
Th/Ts (immunoregulatory index) [1, 8]: 1.0
Intensity of involvement of 3H-thymidine in DNA of cultivated cells, PHA-activated ([2]; 0.01 μg/ml): 19995 impulse per minute
Intensity of involvement of 3H-thymidine in DNA of cultivated cells, Spontaneous ([2]; 0.01 μg/ml): 901 impulse per minute
Intensity of involvement of 3H-thymidine in DNA of cultivated cells, PHA-activated ([2]; 0.03 μg/ml): 24736 impulse per minute
Intensity of involvement of 3H-thymidine in DNA of cultivated cells, Spontaneous ([2]; 0.03 μg/ml): 1152 impulse per minute
Intensity of involvement of 3H-thymidine in DNA of cultivated cells, PHA-activated ([2]; 0.1 μg/ml): 37890 impulse per minute
Intensity of involvement of 3H-thymidine in DNA of cultivated cells, Spontaneous ([2]; 0.1 μg/ml): 1818 impulse per minute
Intensity of involvement of 3H-thymidine in DNA of cultivated cells, PHA-activated ([2]; 1 μg/ml): 25455 impulse per minute
Intensity of involvement of 3H-thymidine in DNA of cultivated cells, Spontaneous ([2]; 1 μg/ml): 1272 impulse per minute
Intensity of involvement of 3H-thymidine in DNA of cultivated cells, PHA-activated ([2]; 5 μg/ml): 20120 impulse per minute
Intensity of involvement of 3H-thymidine in DNA of cultivated cells, Spontaneous ([2]; 5 μg/ml): 871 impulse per minute
optimal concentration ([2]; proliferation of T-cells): 0.1 µg/mL
mitogenetic activity ([2]; spontaneous proliferation): possesses the proper mitogenetic activitiy of its own
B-lymphocytes (pulmonary tuberculosis; after one month, 0.6 g a day): 12.0 ± 0.8
T-helpers (pulmonary tuberculosis; after one month, 0.6 g a day): 37.4 ± 0.3
T-lymphocytes (pulmonary tuberculosis; after one month, 0.6 g a day): 48.5 ± 1.0
T-suppressors (pulmonary tuberculosis; after one month, 0.6 g a day): 20.0 ± 0.6
Th/Ts (pulmonary tuberculosis; after one month, 0.6 g a day): 1.85 ± 0.2
B-lymphocytes (pulmonary tuberculosis; [9]): 11.0 ± 0.6
T-helpers (pulmonary tuberculosis; [9]): 55.5 ± 2.0
T-lymphocytes (pulmonary tuberculosis; [9]): 54.8 ± 0.7
Th/Ts (pulmonary tuberculosis; [9]): 2.75 ± 0.04
B-lymphocytes (pulmonary tuberculosis; before treatment): 9.0 ± 0.3
T-helpers (pulmonary tuberculosis; before treatment): 28.6 ± 0.2
T-lymphocytes (pulmonary tuberculosis; before treatment): 42.2 ± 0.1
T-suppressors (pulmonary tuberculosis; before treatment): 28.0 ± 1.2
Th/Ts (pulmonary tuberculosis; before treatment): 1.0 ± 0.02
signs of toxication (pulmonary tuberculosis; [10]): No one of the patients exhibeted clinical, hematological signs of toxicaction
tolerance for the preparation (pulmonary tuberculosis; [10]): good
day of considerable improvement of clinical status and general blood analysis [3]: 20 days
day of considerable improvement of immune status parameters [3]: 31 days
HI (histological index) (leprosy mycobacteria; [11]): 4.8
amount of B-lymphocytes (leprosy mycobacteria; [11]): 12%
amount of T-helpers (leprosy mycobacteria; [11]): 66%
amount of T-lymphocytes (leprosy mycobacteria; [11]): 85%
immunoregilatory index (leprosy mycobacteria; [11]): 3.4
total number of lymphocytes (leprosy mycobacteria; [11]): 51%
HI (histological index) (leprosy mycobacteria; patient I., on hospitalization): 5,4
period of time during which samples maintain their properties (Storage stability): 3 years
Damage index ([4]; 100 μg per mouse): 1.91 ± 0.18
Life duration ([4]; 100 μg per mouse): 34.6 ± 4.8
Weight of the lung ([4]; 100 μg per mouse): 507.0 ± 48.4
Damage index ([4]; 200 μg per mouse): 1.81 ± 0.21
Life duration ([4]; 200 μg per mouse): 35.7 ± 5.2
Weight of the lung ([4]; 200 μg per mouse): 495.4 ± 56.1
antituberculous action ([4]; mouse, in vivo): pronounced antituberculous action
toxicity (white unbred mice): exceed 7000 mg/kg
solubility in dimethylformamide, dimethylsulfoxide, deluted acids and alkalies (Solubility): soluble
solubility in water or usual organic solvents (Solubility): difficult to dissolve
AFC-number in the spleen ([5]; 500 μg per mouse per os in starch suspension, 5th day after immunization): 2800 ± 200
Immune response stimulation index ([5]; 500 μg per mouse per os, ratio of AFC test group to control group): 5.6
